Assay results taken from patent EP0725776B1, “3-ARYL-4-ALKYL AND 4,5-DIALKYL-4H-1,2,4-TRIAZOLES USEFUL AS MEMORY ENHANCERS” (MERRELL PHARMACEUTICALS INC., priority 1993, dated 1995).

Key:
RAT CORTICAL MEMBRANES = experiment: [3H]hemicholinium-3 binding in vitro in cortical membranes after in vivo administration; design: species or system Male Sprague-Dawley rats; conditions: n=10
Source text: The pharmacological properties of these compounds as enhancers of memory and cognition and their relative potencies may be measured through their effect on neuro-transmitters in the brain. Since drugs that block GABA inhibition in the cholinergic neurons of the basal forebrain nuclei will stimulate cholinergic firing, thus stimulating memory, the capacity of the drugs to enhance cognition can be assessed by measuring the increase in cholinergic firing rate. The increase in cholinergic firing rate is measured indirectly by measuring choline uptake or [^3H] hemicholinium-3 binding in brain cells taken from treated animals.
To test for [^3H] hemicholinium-3 binding in brain cells from the brain cortex, drugs were dissolved in saline by sonication. Male Sprague-Dawley rats were dosed i.p. and sacrificed by decapitation 60 min after injection. […] Binding was measured by incubating the tissue with varying concentrations of [^3H]hemicholinium-3 in an isotonic Tris buffer (pH 7.4) for 60 min at room temperature. […] After drying, the filters were placed in scintillation cocktail and radioactivity was determined using a Beckman scintillation counter. The values for the Kd and Bmax were determined by nonlinear curve-fitting and the average values for samples of 3 or more animals reported. […]

[1] = tested on: Diazepam-Induced Water Maze Learning Impairment; experiment: Reversal of diazepam-induced water maze learning impairment; assay type: in vivo, Male Sprague-Dawley rats; conditions: for Mean Latency ± S.E.M., Block 1 / Mean Latency ± S.E.M., Block 2 / Mean Latency ± S.E.M., Block 3: 8 rats
Source text: The activity of compounds of formula I in enhancing spacial learning ability and cognition can be tested by studying their ability to reverse a water maze learning impairment induced by the benzodiazepine, diazepam (R. G. M. Morris, Learning and Motivation 12, 239-260 (1982); M. P. Arolfo, and J. D. Brioni, Behavioral and Neural Biology 55, 131-6 (1991); R. K. McNamara and R. W. Skelton, Pharmacology, Biochemistry & Behavior 38, 651-8 (1991); R. K. McNamara and R. W. Skelton, Psychopharmacology 107, 347-51 (1992)).
Male Sprague-Dawley rats are trained in a 120-cm diameter water-filled tank to locate a hidden platform submerged just below the surface of the water. The location of the platform remained constant, but for each trial the animal was required to swim from one of three different starting locations around the edge of the tank. There were no proximal cues in the tank, so the animal had to use a spatial mapping strategy using the distal cues around the room to navigate to the hidden platform. The animals were given 9 successive training trials during the single training day. […] After the animal found or was placed on the platform, it was allowed to stay there for 30 seconds. The next trial commenced immediately following the 30 second stay on the platform. Latency to locate the platform was recorded for each trial using a computerized video tracking system for automated acquisition of the data.
Separate treatment groups of four animals each were run in each experiment. The results of two experiments were combined so that 8 rats were tested in each treatment group. The vehicle-vehicle group received vehicle (distilled water plus Tween) i.p. 60 minutes prior to the first trial and vehicle i.p. 20 minutes prior to the first trial. The vehicle-diazepam group received vehicle i.p. 60 minutes prior to the first trial and 2.5 mg/kg diazepam i.p. 20 minutes prior to the first trial. Two groups of animals were treated with 3-(3-fluorophenyl)-4-methyl-4H-1,2,4-triazole, a compound of formula I, prior to treatment with diazepam. One group received 20 mg/kg of 3-(3-fluorophenyl)-4-methyl-4H-1,2,4-triazole i.p. 60 minutes prior to the first trial and 2.5 mg/kg diazepam i.p. 20 minutes prior to the first trial, while the second group received 40 mg/kg of 3-(3-fluorophenyl)-4-methyl-4H-1,2,4-triazole i.p. 60 minutes prior to the first trial and 2.5 mg/kg diazepam i.p. 20 minutes prior to the first trial.
The latency scores for each animal were averaged into three blocks of three trials each (one trial from each starting location). A one-way ANOVA comparing the treatment groups was computed on the scores for each trial block. If the overall ANOVA was statistically significant, comparisons between individual treatment groups were made with Fisher's PLSD test.

[2] = reported by M. Y. Mhasalkar, et al., J. Med. Chem 14(3) 260-262, (1971); cited from earlier work
[3] = 20 mg/kg i.p. 60 min prior to first trial, diazepam 2.5 mg/kg i.p. 20 min prior
[4] = 40 mg/kg i.p. 60 min prior to first trial, diazepam 2.5 mg/kg i.p. 20 min prior
[5] = vehicle i.p. 60 min prior, diazepam alone 2.5 mg/kg i.p. 20 min prior to first trial

## Cn1cnnc1-c1cccc(F)c1 [3-(3-Fluorophenyl)-4-methyl-4H-1,2,4-triazole]
RAT CORTICAL MEMBRANES; [3H]hemicholinium-3 binding, rat cortex, dosed i.p. (1/mg/kg), sacrificed 60 min after injection
  Bmax ± SEM: 20.4±2.48 fmol/mg Protein
RAT CORTICAL MEMBRANES; over saline control, (1/mg/kg) i.p., 60 min
  % Increase in Bmax: 45%
[1]; [3]
  Mean Latency ± S.E.M., Block 1: 44.68 ± 2.56 s
  Mean Latency ± S.E.M., Block 2: 37.67 ± 6.01 s
  Mean Latency ± S.E.M., Block 3: 35.21 ± 6.00 s
[1]; 20 mg/kg i.p. plus diazepam 2.5 mg/kg, result in words
  Effect on diazepam-induced impairment: attenuated diazepam-induced impairment
[1]; [4]
  Mean Latency ± S.E.M., Block 1: 58.19 ± 1.01 s
  Mean Latency ± S.E.M., Block 2: 52.83 ± 3.85 s
  Mean Latency ± S.E.M., Block 3: 53.59 ± 4.31 s
[1]; 40 mg/kg i.p. plus diazepam 2.5 mg/kg, result in words
  Effect on diazepam-induced impairment: did not affect the diazepam-induced impairment

## Cn1cnnc1-c1ccc(Cl)cc1 [3-(4-Chlorophenyl)-4-methyl-4H-1,2,4-triazole]
[2]
  hypoglycemic activity: hypoglycemic activity

## CN1C(=O)CN=C(c2ccccc2)c2cc(Cl)ccc21 [diazepam, reference compound]
[1]; diazepam 2.5 mg/kg i.p. versus vehicle-vehicle group, p < .05 on all three blocks, result in words
  Effect on water maze learning: significantly impaired water maze learning
[1]; [5]
  Mean Latency ± S.E.M., Block 1: 57.70 ± 2.30 s
  Mean Latency ± S.E.M., Block 2: 49.67 ± 6.06 s
  Mean Latency ± S.E.M., Block 3: 55.76 ± 4.24 s
